Laboratory results reported in patent US8642765B2, “Azaindole-indole coupled derivatives, preparation methods and uses thereof” (priority 2007, dated 2014).
pIC50: −log10 of the molar value.

Key:
DU145 tumor cells = test: MTT growth inhibition of DU145 cells, 72 h; format: cell-based, human; details: for pIC50 / IC90: DU145, 72 h, MTT; for growth inhibitory effects on tumor cells (in words): discussion of the MTT assay, DU145
Procedure: DU145 cells were inoculated in RPM11640 medium containing 10% calf serum, incubated at 37° C., 5% CO2 in CO2 incubator, and passaged every 2-3 days. In this experiment, cells were grown in logarithmic growth phase.
In the experiment, the cells at logarithmic growth phase were formulated into suspension, and the viability by trypan blue staining was more than 98%. The suspension was divided into several groups: 1 as blank control group (cell suspension); and 2 as experimental groups (cell suspension plus drugs).
(§1) The drugs were formulated into a stock solution in DMSO, and the concentration of the stock solution was 20 mmol (used within 4 hours). In the experiment, the work solution of the drugs was diluted with RPM11640 medium containing 10% calf serum under aseptic condition, to a final concentration of 80 μM. The drug concentrations were increased by 2 times (1.25-20 μM).
(§2) The DU145 cell in logarithmic growth phase were selected, centrifuged, counted, and formulated into a cell suspension (2.5×10^4/ml) with RPM11640 medium containing 10% calf serum. The cell suspension were inoculated into 96-well plates at a density of 5000 cells/200 μl per well, incubated for 24 hours at 37° C., 5% CO2. According to the above concentration of the drug, the cells were inoculated to 6 groups (including one control group), with 8 wells per group. After incubating for 72 hours, the viability of cells was measured by MTT assay. The absorbance value (A) was measured with detection wavelength at 540 nm, reference wavelength at 630 nm. The inhibitory rate (I) was calculated by the following equation, where T was the absorbance value of the experimental groups, and C was the absorbance value of the blank control group: I=(1−T/C)×100%
(§3) The regression equation was calculated by the concentration-inhibitory rate curve, to obtain 50% and 90% inhibition concentration (IC50 and IC90, μM).

[1] = system: human hepatoma cell line 7701 QGY; test: MTT growth inhibition of 7701 QGY cells; format: cell-based; details: read-out: IC50 (μM) Tumor cells 7701 QGY
Procedure: as §1, §2, §3
(§4) 1. Tumor Cells: human hepatoma cell lines 7701 QGY and HepG-2, human lung adenocarcinoma cell line A549, human chronic myelocytic leukemia cell line K562, human leukemia cell line CEM and mouse melanoma cell line K111.
(§5) 2. Using the methods described in example 2, the biological activity of a portion of newly synthesized 5- or 7-azaindirubin derivatives and 5- or 7-azaisoindigo derivatives (20 compounds) for inhibiting various tumor cells growth were determined.

[2] = system: human hepatoma cell line HepG-2; test: MTT growth inhibition of HepG-2 cells; format: cell-based; details: HepG-2, MTT; read-out: IC50 (μM) Tumor cells HepG-2
Procedure: as §1, §2, §3, §4, §5

[3] = system: human lung adenocarcinoma cell line A549; test: MTT growth inhibition of A549 cells; format: cell-based; details: read-out: IC50 (μM) Tumor cells A549
Procedure: as §1, §2, §3, §4, §5

[4] = system: human chronic myelocytic leukemia cell line K562; test: MTT growth inhibition of K562 cells; format: cell-based; details: read-out: IC50 (μM) Tumor cells K562
Procedure: as §1, §2, §3, §4, §5

[5] = system: human leukemia cell line CEM; test: MTT growth inhibition of CEM cells; format: cell-based; details: read-out: IC50 (μM) Tumor cells CEM
Procedure: as §1, §2, §3, §4, §5

[6] = system: mouse melanoma cell line K111; test: MTT growth inhibition of K111 cells; format: cell-based; details: Klll, read-out: IC50 (μM) Tumor cells Klll
Procedure: as §1, §2, §3, §4, §5

[7] = Homo sapiens, DU-145, 72 h, Table 5
[8] = Homo sapiens, DU-145, 72 h, Table 6

Structure (SMILES) | pIC50 (DU145 tumor cells; Table 5) | IC90 (DU145 tumor cells; Table 5) | pIC50 (DU145 tumor cells; Table 6) | IC90 (DU145 tumor cells; Table 6) | other results
CCN1C(=O)C(=C2Nc3ccc(Br)cc3C2=O)c2cnccc21 [Compound 12] | 5.06 | 28 µM |  |  | 
CC(C)N1C(=O)C(=C2Nc3ccc(Cl)cc3C2=NO)c2cccnc21 [Compound 122] |  |  | 5.10 | 25 µM | 
CCN1C(=O)C(=C2C(=O)Nc3ccc(Cl)cc32)c2cccnc21 [Compound 161] |  |  | 4.85 | 45 µM | 
CN1C(=O)C(=C2Nc3ccc(Cl)cc3C2=NO)c2cnccc21 [Compound 25] | 5.77 | 12.2 µM |  |  | growth inhibitory effects on tumor cells (in words) (DU145 tumor cells): relatively significant growth inhibitory effects
CC1=C(/C=C/C(C)=C/C=C/C(C)=C/C(=O)O)C(C)(C)CCC1 [all-trans retinoic acid, reference compound] |  |  |  |  | pIC50 (DU145 tumor cells; [7]): < 4.30; pIC50 (DU145 tumor cells; [8]): < 4.30
CC(C)N1C(=O)C(=C2Nc3ccc(Cl)cc3C2=O)c2cnccc21 [Compound 15] | 5.05 | 48 µM |  |  | 
CC(C)N1C(=O)C(=C2Nc3ccc(Cl)cc3C2=NO)c2cnccc21 [Compound 31] | 5.43 | 11.5 µM |  |  | 
CN1C(=O)C(=C2Nc3ccc(Cl)cc3C2=NO)c2cccnc21 [Compound 116] |  |  | 5.16 | 16 µM | growth inhibitory effects on tumor cells (in words) (DU145 tumor cells): relatively significant growth inhibitory effects; IC50 [1]: 11.1 µM; IC50 [2]: 20.5 µM; IC50 [3]: 12.5 µM; IC50 [4]: 8.2 µM; IC50 [5]: 5.6 µM; IC50 [6]: 6.3 µM
CCCCN1C(=O)C(=C2C(=O)Nc3ccc(F)cc32)c2cnccc21 [Compound 82] | < 4.00 | > 100 µM |  |  | 
CNc1cnc2c(c1)C(=C1Nc3ccc(F)cc3C1=O)C(=O)N2Cc1ccccc1 [Compound 111] |  |  | 5.13 | 34 µM | IC50 [1]: 28.5 µM; IC50 [2]: 17 µM; IC50 [3]: 24.3 µM; IC50 [4]: 15 µM; IC50 [5]: 11 µM; IC50 [6]: 15.1 µM
O=C1Nc2ccc(Br)cc2C1=C1C(=O)N(Cc2ccccc2)c2ncccc21 [Compound 176] |  |  |  |  | IC50 [1]: 13.7 µM; IC50 [2]: 20.6 µM; IC50 [3]: 13.2 µM; IC50 [4]: 4.1 µM; IC50 [5]: 7.4 µM; IC50 [6]: 8.3 µM
O=C1C(=C2Nc3ccc(Cl)cc3C2=NO)c2cnccc2N1Cc1ccccc1 [Compound 35] | 5.14 | 20 µM |  |  | 
CCN1C(=O)C(=C2C(=O)Nc3ccc(F)cc32)c2cccnc21 [Compound 162] |  |  | 4.76 | 89 µM | 
CCCCN1C(=O)C(=C2Nc3ccc(Br)cc3C2=NO)c2cccnc21 [Compound 123] |  |  | 5.43 | 5 µM | 
CCN1C(=O)C(=C2Nc3ccc(Cl)cc3C2=NO)c2cccnc21 [Compound 120] |  |  | 5.27 | 61 µM | 
CCN1C(=O)C(=C2Nc3ccc(Cl)cc3C2=O)c2cccnc21 [Compound 104] |  |  | 5.07 | 45 µM | 
CCCCN1C(=O)C(=C2C(=O)Nc3ccc(Cl)cc32)c2cccnc21 [Compound 171] |  |  | 5.05 | 46 µM | 
CCCCN1C(=O)C(=C2Nc3ccccc3C2=NO)c2cccnc21 [Compound 131, 1-butyl-7-azaindirubin-3′-oxime] |  |  | 4.80 | 80 µM | 
CC(C)N1C(=O)C(=C2C(=O)Nc3ccc(Cl)cc32)c2cccnc21 [Compound 166] |  |  | 5.00 | 31.5 µM | 
CCN1C(=O)C(=C2C(=O)Nc3ccc(F)cc32)c2cnccc21 [Compound 71] | 4.77 | 87 µM |  |  | 
CCN1C(=O)C(=C2Nc3ccccc3C2=NO)c2cnccc21 [Compound 38] | 5.19 | 22 µM |  |  | 

Structure (SMILES) | pIC50 (DU145 tumor cells; Table 5) | IC90 (DU145 tumor cells; Table 5) | pIC50 (DU145 tumor cells; Table 6) | IC90 (DU145 tumor cells; Table 6) | other results
CCCCN1C(=O)C(=C2Nc3ccccc3C2=O)c2cnccc21 [Compound 8] | 4.94 | 39 µM |  |  | 
CCCCN1C(=O)C(=C2C(=O)Nc3ccccc32)c2cnccc21 [Compound 78] | 4.80 | 51 µM |  |  | 
CC(C)N1C(=O)C(=C2Nc3ccccc3C2=O)c2cccnc21 [Compound 98] |  |  | < 4.00 |  | 
CC(=O)OCC1OC(N2C(=O)C(=C3C(=O)Nc4ccccc43)c3cnccc32)C(OC(C)=O)C1OC(C)=O (stereo not shown) [Compound 67] | 5.10 | 44 µM |  |  | 
CC(C)N1C(=O)C(=C2C(=O)Nc3ccc(Cl)cc32)c2cnccc21 [Compound 75] | 5.01 | 29 µM |  |  | 
CC(C)N1C(=O)C(=C2Nc3ccccc3C2=NO)c2cccnc21 [Compound 130] |  |  | 5.15 | 17 µM | 
O=C1C(=C2C(=O)N(Cc3ccccc3)c3ncccc32)Nc2ccccc21 [Compound 100] |  |  | 5.02 | 31.5 µM | 
CN1C(=O)C(=C2C(=O)Nc3ccc(F)cc32)c2cnccc21 [Compound 63] | 4.32 | > 100 µM |  |  | 
CCN1C(=O)C(=C2Nc3ccc(Cl)cc3C2=NO)c2cnccc21 [Compound 29] | 5.66 | 6.8 µM |  |  | 
CCN1C(=O)/C(=C2\Nc3ccccc3C2=O)c2ccccc21 [Compound 90, 1-ethyl-indirubin, reference compound] |  |  |  |  | pIC50 (DU145 tumor cells; [7]): 5.14; IC90 (DU145 tumor cells; [7]): 31 µM; pIC50 (DU145 tumor cells; [8]): 5.15; IC90 (DU145 tumor cells; [8]): 30 µM
CC(C)N1C(=O)C(=C2Nc3ccccc3C2=O)c2cnccc21 [Compound 7] | < 4.00 |  |  |  | 
CCCCN1C(=O)C(=C2Nc3ccc(Br)cc3C2=O)c2cccnc21 [Compound 107] |  |  | 4.85 | 26 µM | 
CCCCN1C(=O)C(=C2C(=O)Nc3ccc(F)cc32)c2cccnc21 [Compound 173] |  |  | < 4.00 | > 100 µM | 
CCCCN1C(=O)C(=C2C(=O)Nc3ccc(Br)cc32)c2cnccc21 [Compound 79] | 4.84 | 77 µM |  |  | 
CCCCN1C(=O)C(=C2Nc3ccc(Cl)cc3C2=O)c2cccnc21 [Compound 108] |  |  | 4.96 | 42 µM | 
CCN1C(=O)C(=C2Nc3ccc(Br)cc3C2=O)c2cccnc21 [Compound 103] |  |  | 5.00 | 32.2 µM | 
CCN1C(=O)C(=C2Nc3ccc(Br)cc3C2=NO)c2cnccc21 [Compound 28] | 5.35 | 14 µM |  |  | 
CC(C)N1C(=O)C(=C2C(=O)Nc3ccc(Br)cc32)c2cccnc21 [Compound 165] |  |  | 5.08 | 28 µM | 
O=C1C(=C2C(=O)N(Cc3ccccc3)c3ccncc32)Nc2ccccc21 [Compound 9] | 4.92 | 85 µM |  |  | 
CCCCN1C(=O)C(=C2C(=O)Nc3ccccc32)c2cccnc21 [Compound 169] |  |  | 4.85 | 47 µM | 
